Laboratory results as given in patent US20250051300A1, “GRAM-NEGATIVE SPECIFIC ANTIBIOTICS SPARING EFFECT ON GUT MICROBIOME” (THE BOARD OF TRUSTEES OF THE UNIVERSITY OF ILLINOIS, priority 2021, published 2025).
Like-named read-outs stand apart in the source and are kept apart here.

Columns and labels:
Klebsiella pneumoniae = experiment: MIC, micro-dilution broth method (CLSI); format: cell-based; conditions: Klebsiella pneumoniae, read-out: MIC
Escherichia coli = experiment: MIC, micro-dilution broth method (CLSI); format: cell-based; conditions: Escherichia coli
Enterobacter cloacae = experiment: MIC, micro-dilution broth method (CLSI); format: cell-based; conditions: Enterobacter cloacae, read-out: MIC
E. coli AR0349 = experiment: Bacterial sepsis survival model; format: in vivo, CD-1 mice
[1] = Mouse maximum tolerated dose / tolerability; format: in vivo
Method: Mouse maximum tolerated dose (MTD) of compound 2 and lolamycin. […] In these studies, 10- to 12-week-old female C57BL/6 mice purchased from Charles River Laboratories were used. The maximum tolerated dose (MTD) of a single compound via IP injection was determined first. Compound 2 and lolamycin were formulated in 50% DMSO, 50% PEG400. Compound 2 and lolamycin were given by intraperitoneal (IP) injection. All the mice were monitored for signs of toxicity for 2 weeks. For multiple doses, the compound was given by daily IP injection for 5 consecutive days and the mice were monitored for signs of toxicity for 1 month. The MTD was the highest dosage with acceptable toxicity (for example, <20% weight loss).
Next, the MTD of lolamycin via oral gavage was determined. Lolamycin was formulated in 20% DMSO, 30% Water, and 50% PEG400. Lolamycin was given via oral gavage. All the mice were monitored for signs of toxicity for 2 weeks. For multiple doses, compound was given twice daily orally for 3 consecutive days and the mice were monitored for signs of toxicity. The MTD was the highest dosage with acceptable toxicity (for example, <20% weight loss). […] The MTD of lolamycin was used to inform the dosing schedule used in subsequent efficacy studies.

Aqueous solubility limit = format: physicochemical; conditions: limit to which compounds were tested in MIC assays

Cc1cc(-c2c[nH]nc2-c2cccc(OCc3cccc(C#N)c3)c2)cc(C)n1 [Compound 12, 3-((3-(4-(2,6-dimethylpyridin-4-yl)-1H-pyrazol-3-yl)phenoxy)methyl)benzonitrile]
well tolerated: tolerability ([1]; C57BL/6 mice, daily dosing of 200 mg/kg for 5 consecutive days, IP) | tolerability ([1]; C57BL/6 mice, single dose of 200 mg/kg, IP) | tolerability ([1]; mice, 200 mg/kg twice a day for three days, oral gavage, listed as Lolamycin, 200 mg/kg)
100%: mice with septic infection rescued (survival) (E. coli AR0349; 100 mg/kg IP twice daily for 3 days)
16 µg/mL: MIC (Enterobacter cloacae; ATCCBAA2341, E. cloacae ATCC BAA-2341) | MIC (Enterobacter cloacae; E. cloacae AR0073)
128 µg/mL: solubility (Aqueous solubility limit; aqueous medium (not further specified)) | solubility (Aqueous solubility limit)
0.5 µg/mL: MIC (Klebsiella pneumoniae; K. pneumoniae AR0034) | MIC (Klebsiella pneumoniae; K. pneumoniae AR0039) | MIC (Klebsiella pneumoniae; K. pneumoniae AR0041) | MIC (Klebsiella pneumoniae; K. pneumoniae AR0043) | MIC (Klebsiella pneumoniae; K. pneumoniae AR0044) | MIC (Klebsiella pneumoniae; K. pneumoniae AR0076) | MIC (Klebsiella pneumoniae; K. pneumoniae AR0080) | MIC (Klebsiella pneumoniae; K. pneumoniae AR0126) | MIC (Klebsiella pneumoniae; K. pneumoniae AR0141) | MIC (Klebsiella pneumoniae; K. pneumoniae AR0142) | MIC (Klebsiella pneumoniae; K. pneumoniae AR0152) | MIC (Klebsiella pneumoniae; K. pneumoniae AR0160) | MIC (Klebsiella pneumoniae; K. pneumoniae AR0553) | MIC (Escherichia coli; E. coli AR0086, read-out: MIC) | MIC (Escherichia coli; E. coli AR0546, read-out: MIC) | MIC (Enterobacter cloacae; E. cloacae AR0050)
1 µg/mL: MIC (Klebsiella pneumoniae; ATCC27736, K. pneumoniae ATCC 27736) | MIC (Klebsiella pneumoniae; ATCCBAA2470, K. pneumoniae ATCC BAA-2470) | MIC (Klebsiella pneumoniae; K. pneumoniae AR0075) | MIC (Klebsiella pneumoniae; K. pneumoniae AR0138) | MIC (Klebsiella pneumoniae; K. pneumoniae AR-0040) | MIC (Escherichia coli; ATCC25922, E. coli ATCC 25922, read-out: MIC) | MIC (Escherichia coli; ATCCBAA2469, E. coli ATCC BAA-2469, read-out: MIC) | MIC (Escherichia coli; E. coli AR0077, read-out: MIC) | MIC (Escherichia coli; E. coli AR0085, read-out: MIC) | MIC (Escherichia coli; E. coli AR0104, read-out: MIC) | MIC (Escherichia coli; E. coli AR0118, read-out: MIC) | MIC (Escherichia coli; E. coli AR0128, read-out: MIC) | MIC (Escherichia coli; E. coli AR0150, read-out: MIC) | MIC (Escherichia coli; E. coli AR0350, read-out: MIC) | MIC (Escherichia coli; E. coli AR0541, read-out: MIC) | MIC (Escherichia coli; E. coli AR-0349 (colistin-resistant clinical isolate), read-out: MIC) | MIC (Enterobacter cloacae; E. cloacae AR0060) | MIC (Enterobacter cloacae; E. cloacae AR0065) | MIC (Enterobacter cloacae; E. cloacae AR0132) | MIC (Enterobacter cloacae; E. cloacae AR0545)
2 µg/mL: MIC (Klebsiella pneumoniae; K. pneumoniae AR0046) | MIC (Klebsiella pneumoniae; K. pneumoniae AR0079) | MIC (Klebsiella pneumoniae; K. pneumoniae AR0087) | MIC (Klebsiella pneumoniae; K. pneumoniae AR0106) | MIC (Klebsiella pneumoniae; K. pneumoniae AR0113) | MIC (Klebsiella pneumoniae; K. pneumoniae AR0120) | MIC (Klebsiella pneumoniae; K. pneumoniae AR0135) | MIC (Klebsiella pneumoniae; K. pneumoniae AR0139) | MIC (Klebsiella pneumoniae; K. pneumoniae AR0140) | MIC (Klebsiella pneumoniae; K. pneumoniae AR0145) | MIC (Klebsiella pneumoniae; K. pneumoniae AR0146) | MIC (Klebsiella pneumoniae; K. pneumoniae AR0542) | MIC (Klebsiella pneumoniae; K. pneumoniae AR0548) | MIC (Klebsiella pneumoniae; K. pneumoniae AR0550) | MIC (Klebsiella pneumoniae; K. pneumoniae AR0555) | MIC (Escherichia coli; ATCCBAA2340, E. coli ATCC BAA-2340, read-out: MIC) | MIC (Escherichia coli; E. coli AR0055, read-out: MIC) | MIC (Escherichia coli; E. coli AR0058, read-out: MIC) | MIC (Escherichia coli; E. coli AR0067, read-out: MIC) | MIC (Escherichia coli; E. coli AR0069, read-out: MIC) | MIC (Escherichia coli; E. coli AR0081, read-out: MIC) | MIC (Escherichia coli; E. coli AR0084, read-out: MIC) | MIC (Escherichia coli; E. coli AR0089, read-out: MIC) | MIC (Escherichia coli; E. coli AR0114, read-out: MIC) | MIC (Escherichia coli; E. coli AR0137, read-out: MIC) | MIC (Escherichia coli; E. coli AR0149, read-out: MIC) | MIC (Escherichia coli; E. coli AR0151, read-out: MIC) | MIC (Escherichia coli; E. coli AR0346, read-out: MIC) | MIC (Escherichia coli; E. coli AR0348, read-out: MIC) | MIC (Escherichia coli; E. coli AR0495, read-out: MIC) | MIC (Escherichia coli; E. coli AR0551, read-out: MIC) | MIC (Escherichia coli; E. coli AR0559, read-out: MIC) | MIC (Escherichia coli; E. coli AR-0549, read-out: MIC) | MIC (Escherichia coli; E. coli ELZ 4004, read-out: MIC) | MIC (Escherichia coli; E. coli ELZ 4017, read-out: MIC) | MIC (Escherichia coli; E. coli ELZ 4072, read-out: MIC) | MIC (Escherichia coli; E. coli ELZ 4081, read-out: MIC) | MIC (Escherichia coli; E. coli ELZ 4277, read-out: MIC) | MIC (Escherichia coli; E. coli ELZ 4346, read-out: MIC) | MIC (Enterobacter cloacae; E. cloacae AR0032) | MIC (Enterobacter cloacae; E. cloacae AR0093) | MIC (Enterobacter cloacae; E. cloacae AR0164)
0.25 µg/mL: MIC (Klebsiella pneumoniae; K. pneumoniae AR0107) | MIC (Enterobacter cloacae; E. cloacae AR0154)
8 µg/mL: MIC (Klebsiella pneumoniae; ATCCBAA2146, K. pneumoniae ATCC BAA-2146) | MIC (Klebsiella pneumoniae; K. pneumoniae AR0049) | MIC (Klebsiella pneumoniae; K. pneumoniae AR0109) | MIC (Klebsiella pneumoniae; K. pneumoniae AR0115) | MIC (Klebsiella pneumoniae; K. pneumoniae AR0158) | MIC (Klebsiella pneumoniae; K. pneumoniae AR0347) | MIC (Escherichia coli; E. coli AR0061, read-out: MIC) | MIC (Escherichia coli; E. coli ELZ 4139, read-out: MIC) | MIC (Enterobacter cloacae; E. cloacae AR0038) | MIC (Enterobacter cloacae; E. cloacae AR-0163)
over 70%: mice with septic infection rescued (survival) (E. coli AR0349; 200 mg/kg PO twice daily for 3 days)
4 µg/mL: MIC (Klebsiella pneumoniae; ATCCBAA1705, K. pneumoniae ATCC BAA-1705) | MIC (Klebsiella pneumoniae; ATCCBAA2342, K. pneumoniae ATCC BAA-2342) | MIC (Klebsiella pneumoniae; ATCCBAA2472, K. pneumoniae ATCC BAA-2472) | MIC (Klebsiella pneumoniae; ATCCBAA2473, K. pneumoniae ATCC BAA-2473) | MIC (Klebsiella pneumoniae; K. pneumoniae AR0042) | MIC (Klebsiella pneumoniae; K. pneumoniae AR0047) | MIC (Klebsiella pneumoniae; K. pneumoniae AR0066) | MIC (Klebsiella pneumoniae; K. pneumoniae AR0068) | MIC (Klebsiella pneumoniae; K. pneumoniae AR0098) | MIC (Klebsiella pneumoniae; K. pneumoniae AR0112) | MIC (Klebsiella pneumoniae; K. pneumoniae AR0117) | MIC (Klebsiella pneumoniae; K. pneumoniae AR0125) | MIC (Klebsiella pneumoniae; K. pneumoniae AR0129) | MIC (Klebsiella pneumoniae; K. pneumoniae AR0143) | MIC (Klebsiella pneumoniae; K. pneumoniae AR0148) | MIC (Klebsiella pneumoniae; K. pneumoniae AR0153) | MIC (Klebsiella pneumoniae; K. pneumoniae AR0552) | MIC (Klebsiella pneumoniae; K. pneumoniae AR0554) | MIC (Escherichia coli; ATCCBAA2471, E. coli ATCC BAA-2471, read-out: MIC) | MIC (Escherichia coli; E. coli AR0048, read-out: MIC) | MIC (Escherichia coli; E. coli AR0119, read-out: MIC) | MIC (Escherichia coli; E. coli AR0162, read-out: MIC) | MIC (Escherichia coli; E. coli AR0493, read-out: MIC) | MIC (Escherichia coli; E. coli AR0494, read-out: MIC) | MIC (Escherichia coli; E. coli AR0543, read-out: MIC) | MIC (Escherichia coli; E. coli ELZ 4042, read-out: MIC) | MIC (Escherichia coli; E. coli ELZ 4239, read-out: MIC) | MIC (Enterobacter cloacae; ATCC29893, E. cloacae ATCC 29893) | MIC (Enterobacter cloacae; ATCCBAA2468, E. cloacae ATCC BAA-2468) | MIC (Enterobacter cloacae; E. cloacae AR0053) | MIC (Enterobacter cloacae; E. cloacae AR0072) | MIC (Enterobacter cloacae; E. cloacae AR0136) | MIC (Enterobacter cloacae; E. cloacae AR0544)
0.06 µg/mL: MIC (Escherichia coli; E. coli ΔrfaC JW3596 (permeability mutant))
well-tolerated: tolerability ([1]; mice, 100 mg/kg twice a day for three days, IP) | tolerability ([1]; mice, 200 mg/kg twice a day for three days, oral gavage, listed as lolamycin, 200 mg/kg)
0.008 µg/mL: MIC (Escherichia coli; E. coli ΔtolC JW5503 (efflux-deficient))
